Patent US20200032213A1, “CONDITIONALLY IMMORTALIZED CELLS AND METHODS FOR THEIR PREPARATION” (Academisch Ziekenhuis Leiden h.o.d.n. LUMC, priority 2017, published 2020)

How the values were obtained:
[1] = test system: adipogenically differentiated murine clone 6 and 7 tBPAs; test: Adrenergic stimulation of adipogenically differentiated tBPAs (glycerol production, Ucp1 transcripts); format: cell-based
[2] = test system: iaCMCs; test: Dox-dependent proliferation of iaCMCs (Ki-67 immunostaining, cell counting); format: cell-based, rat; settings: in the presence of Dox (100 ng/ml)
Experimental: Immunostaining of cultured cells was performed as previously described (Yu et al., 2016) using the following primary antibodies at a dilution of 1:200 in PBS containing 0.1% normal donkey serum (NDS; Sigma-Aldrich): mouse anti-LT (Santa Cruz Biotechnology, catalogue number: sc-147), rabbit anti-Ki-67 (Abcam, catalogue number: ab15580), mouse anti-α-actinin (Sigma-Aldrich, catalogue number: A7811), rabbit anti-MLC2a (Kubalak et al., 1994), rabbit anti-Cx43 (Sigma-Aldrich, catalogue number: C6219) and rabbit anti-ERG1/Kv11.1 (Millipore, catalogue number: AB5930). Bound antigens were detected using Alexa 488-conjugated donkey anti-rabbit IgG (H+L) (Thermo Fisher Scientific, catalogue number: A21206) and Alexa 568-coupled donkey anti-mouse IgG (H+L) (Thermo Fisher Scientific, catalogue number: A10037). These secondary antibodies were diluted 1:400 in PBS. Hoechst 33342 ([…]; Thermo Fisher Scientific) was used to counterstain nuclei. Stained cells were visualized using a digital color camera-equipped fluorescence microscope (Nikon Eclipse 80i; Nikon Instruments Europe, Amstelveen, The Netherlands). To assess their proliferation rate, […] were cultured at low density in medium with or without 100 ng/ml Dox. […]

[3] = test system: iaCMCs at day 6 of differentiation; test: Optical voltage mapping of iaCMC-d6 cultures exposed to astemizole, 1-Hz pacing; format: cell-based, rat
Experimental: For studying AP propagation in confluent monolayer cultures, cells were seeded at a density of 8×10^5 cells/well in 24-well cell culture plates onto bovine fibronectin-coated round glass coverslips (15 mm diameter) and subjected to optical voltage mapping using di-4-ANEPPS (Thermo Fisher Scientific) as fluorescent voltage indicator as described previously (Bingen et al., 2014). The measurements were carried out at 37° C. on 9-day-old naCMC and nvCMC cultures and on iaCMCs that had been maintained for 0, 3, 6, 9 and 12 days in Dox-free medium. Optical signals were captured using a MiCAM ULTIMA-L imaging system (SciMedia, Costa Mesa, Calif.). Optical traces were analyzed using Brain Vision Analyzer 1208 software (Brainvision, Tokyo, Japan). To minimize noise artifacts, calculations were based on the average of the signals at a selected pixel and its eight nearest neighbors. CV and APD at different percentages of repolarization were determined using cardiomyocyte cultures showing uniform AP propagation and 1:1 capture after 1-Hz local electrical stimulation with an epoxy-coated bipolar platinum electrode delivering square 10-ms, 8-V suprathreshold electrical impulses via a STG 2004 stimulus generator and MC Stimulus II software (both from Multi Channel Systems). Burst pacing with a cycle length of 20 to 100 ms was used to induce reentry. […] To facilitate comparison of the APD, the amplitude of the optical signal traces was normalized for all samples within a given experiment.

[4] = test system: iaCMCs at day 9 of differentiation; test: Optical voltage mapping of tertiapin-treated iaCMC-d9 monolayers, 1-Hz pacing; format: cell-based, rat; settings: tertiapin (100 nM), iaCMCs cultured 9 days without Dox
Experimental: (§1) For studying AP propagation in confluent monolayer cultures, cells were seeded at a density of 8×10^5 cells/well in 24-well cell culture plates onto bovine fibronectin-coated round glass coverslips (15 mm diameter) and subjected to optical voltage mapping using di-4-ANEPPS (Thermo Fisher Scientific) as fluorescent voltage indicator as described previously (Bingen et al., 2014). The measurements were carried out at 37° C. on 9-day-old naCMC and nvCMC cultures and on iaCMCs that had been maintained for 0, 3, 6, 9 and 12 days in Dox-free medium. Optical signals were captured using a MiCAM ULTIMA-L imaging system (SciMedia, Costa Mesa, Calif.). Optical traces were analyzed using Brain Vision Analyzer 1208 software (Brainvision, Tokyo, Japan). To minimize noise artifacts, calculations were based on the average of the signals at a selected pixel and its eight nearest neighbors. CV and APD at different percentages of repolarization were determined using cardiomyocyte cultures showing uniform AP propagation and 1:1 capture after 1-Hz local electrical stimulation with an epoxy-coated bipolar platinum electrode delivering square 10-ms, 8-V suprathreshold electrical impulses via a STG 2004 stimulus generator and MC Stimulus II software (both from Multi Channel Systems). Burst pacing with a cycle length of 20 to 100 ms was used to induce reentry. […]

[5] = test system: confluent monolayers of iaCMCs; test: In vitro AF model: induction of reentry by burst pacing in confluent iaCMC monolayers; format: cell-based, rat; settings: 100 nM tertiapin, iaCMCs at day 6, 9 or 12 of differentiation
Experimental: as §1

[6] = test system: confluent naCMC cultures; settings: naCMCs; Bingen et al., 2013; cited from earlier work

C[C@H](Cc1ccc2c(c1)OC(C(=O)[O-])(C(=O)[O-])O2)NC[C@H](O)c1cccc(Cl)c1.[Na+].[Na+] [CL316243]
Ucp1 transcript levels [1]: increased | glycerol production [1]: increased

C[C@H]1c2cccc(O)c2C(=O)C2=C(O)[C@]3(O)C(=O)C(C(N)=O)=C(O)[C@@H](N(C)C)[C@@H]3[C@@H](O)[C@@H]21 [Dox, doxycycline]
average doubling time [2]: 38 h | iaCMCs positive for the proliferation marker Ki-67 [2]: 72.2±8.1%

COc1ccc(CCN2CCC(Nc3nc4ccccc4n3Cc3ccc(F)cc3)CC2)cc1 [astemizole]
conduction velocity (CV) ([3]; 0.1 µM): 14.8 ± 2.8 cm/s | APD at 40% repolarization (APD40) ([3]; 100 nM astemizole, 30 minutes, iaCMC-d6, 1-Hz pacing, N=6, vehicle 21.5±1.0): 30.2 ± 2.1 ms | APD at 90% repolarization (APD90) ([3]; 100 nM astemizole, 30 minutes, iaCMC-d6, 1-Hz pacing, N=6, vehicle 88.7±5.4): 110.9 ± 4.2 ms

NC[C@H](O)c1ccc(O)c(O)c1 [noradrenaline]
Ucp1 transcript levels [1]: increased | glycerol production [1]: increased

tertiapin (ALCNCNRIIIPHMCWKKCGKK)
effect on APD [4]: strong increase | inducibility of reentry by burst pacing [5]: no longer possible to induce reentry | termination of reentrant circuits (rotors) by prolonging APD [6]: could be terminated
